System: 5-HT1
Experiment: 5-HT1 IC50
Type: binding
Settings: not given

For `Cc1nn(C)c(C)c1-c1cccc(CCN(C)C)c1` [Example 1, Dimethyl-{2-[3-(1,3,5-trimethyl-1H-pyrazol-4-yl)-phenyl]-ethyl}-amine], the IC50 was > 1000 nM.

Biological target: T1, Cloned Human Serotonin Receptor, Subtype 7 (h5HT7) (Homo sapiens, UniProt P34969)
T1 construct: purchased PerkinElmer 6120512; host or cells: CHO cells
Experiment: Radioligand binding, [125I]LSD, h5HT7 expressed in CHO cells
Settings: not given
Experimental: Radioligand binding assays were performed using the Cloned Human Serotonin Receptor, Subtype 7 (h5HT7), expressed in CHO cells, coated on Flashplate (Basic FlashPlate Cat.: SMP200) from PerkinElmer (Cat.: 6120512). The protocol assay was essentially the recommended protocol in the Technical Data Sheet by PerkinEmer Life and Analytical Sciences. The Mass membrane protein/well was typically […] and the Receptor/well was about 9-10 fmoles. The Flashplate were let equilibrate at room temperature for one hour before the addition of the components of the assay mixture. The binding buffer was: 50 mM Tris-HCl, pH 7.4, containing 10 mM MgCl2, 0.5 mM EDTA and 0.5% BSA. The radioligand was [^125I]LSD at a final concentration of 0.82 nM. Nonspecific binding was determined with 50 μM of Clozapine. The assay volume was 25 μl. TopSeal-A were applied onto Flashplate microplates and they were incubated at room temperature for 240 minutes in darkness. The radioactivity were quantified by liquid scintillation spectrophotometry (Wallac 1450 Microbeta Trilux) with a count delay of 4 minutes prior to counting and a counting time of 30 seconds per well. Competition binding data were analyzed by using the LIGAND program (Munson and Rodbard, LIGAND: A versatile, computerized approach for characterization of ligand-binding systems. Anal. Biochem. 107: 220-239, 1980) and assays were performed in triplicate determinations for each point.

T1 sequence (P34969 whole entry): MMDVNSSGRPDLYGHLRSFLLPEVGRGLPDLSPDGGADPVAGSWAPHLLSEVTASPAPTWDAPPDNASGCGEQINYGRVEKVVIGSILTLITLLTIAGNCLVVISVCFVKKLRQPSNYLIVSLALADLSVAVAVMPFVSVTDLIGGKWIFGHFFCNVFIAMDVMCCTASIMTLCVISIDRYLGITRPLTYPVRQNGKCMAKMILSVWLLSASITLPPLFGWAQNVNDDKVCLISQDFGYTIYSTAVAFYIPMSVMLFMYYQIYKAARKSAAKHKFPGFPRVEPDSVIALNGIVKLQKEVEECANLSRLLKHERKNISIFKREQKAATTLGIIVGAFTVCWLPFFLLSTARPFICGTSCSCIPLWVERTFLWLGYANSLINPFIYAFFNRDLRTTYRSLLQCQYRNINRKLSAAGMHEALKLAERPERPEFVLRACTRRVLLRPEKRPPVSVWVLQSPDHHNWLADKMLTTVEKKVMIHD

In order of rising IC50:
1. Cc1nn(C)c(C)c1-c1cccc(CCN)c1 [Example 29, 2-[3-(1,3,5-Trimethyl-1H-pyrazol-4-yl)-phenyl]-ethylamine]  4.5 ± 1.5 nM
2. CN(C)CCc1cccc(-c2c(Cl)cccc2Cl)c1 [Example 34]  5 ± 1.7 nM
3. Cc1nn(C)c(C)c1-c1cccc(CCN(C)C)c1 [Example 1, Dimethyl-{2-[3-(1,3,5-trimethyl-1H-pyrazol-4-yl)-phenyl]-ethyl}-amine]  6.1 ± 0.7 nM
4. CNCCc1cccc(-c2c(Cl)cccc2OC)c1 [Example 39, [2-(6′-Chloro-2′-methoxy-biphenyl-3-yl)-ethyl]-methyl-amine]  8.8 nM
5. Cc1cccc(C)c1-c1cccc(CCN(C)C)c1 [Example 9, [2-(2′,6′-Dimethyl-biphenyl-3-yl)-ethyl]-dimethyl-amine]  10.1 ± 0.8 nM
6. COc1cccc(OC)c1-c1cccc(CCN(C)C)c1 [Example 13, [2-(2′,6′-Dimethoxy-biphenyl-3-yl)-ethyl]-dimethyl-amine]  19.7 ± 1.5 nM
7. COc1ccccc1-c1cccc(CCN(C)C)c1 [Example 21, [2-(2′-Methoxy-biphenyl-3-yl)-ethyl]-dimethyl-amine]  19.9 ± 1.7 nM
8. CN(C)CCc1cccc(-c2c(F)cccc2F)c1 [Example 35, [2-(2′,6′-Difluoro-biphenyl-3-yl)-ethyl]-dimethyl-amine]  20.8 nM
9. COc1cccc(Cl)c1-c1cccc(CCN(C)C)c1 [Example 38, [2-(6′-Chloro-2′-methoxy-biphenyl-3-yl)-ethyl]-dimethyl-amine]  24 ± 2.3 nM
10. CCCN(CCC)CCc1cccc(-c2c(C)cccc2C)c1 [Example 12, [2-(2′,6′-Dimethyl-biphenyl-3-yl)-ethyl]-dipropyl-amine]  42.6 ± 21.1 nM
11. CCN(CC)CCc1cccc(-c2c(C)cccc2C)c1 [Example 11, [2-(2′,6′-Dimethyl-biphenyl-3-yl)-ethyl]-diethyl-amine]  43.5 ± 15.9 nM
12. CCCN(CCC)CCc1cccc(-c2c(C)nn(C)c2C)c1 [Example 4, Dipropyl-{2-[3-(1,3,5-trimethyl-1H-pyrazol-4-yl)-phenyl]-ethyl}-amine]  56.9 ± 17.9 nM
13. CCN(CC)CCc1cccc(-c2c(C)nn(C)c2C)c1 [Example 3, Diethyl-{2-[3-(1,3,5-trimethyl-1H-pyrazol-4-yl)-phenyl]-ethyl}-amine]  76.2 nM
14. CCCN(CCC)CCc1cccc(-c2ccccc2OC)c1 [Example 24, [2-(2′-Methoxy-biphenyl-3-yl)-ethyl]-dipropyl-amine]  84.9 nM
15. COc1cccc(OC)c1-c1cccc(CCN)c1 [Example 33, 2-(2′6′-Dimethoxy-biphenyl-3-yl)-ethylamine]  122 nM
16. CNCCc1cccc(-c2cccnc2OC)c1 [Example 37, {2-[3-(2-Methoxy-pyridin-3-yl)-phenyl]-ethyl}-methyl-amine]  157 nM
17. COc1ncccc1-c1cccc(CCN(C)C)c1 [Example 36, {2-[3-(2-Methoxy-pyridin-3-yl)-phenyl]-ethyl}-dimethyl-amine]  303 nM

Same assay, conditions: [125I]LSD 0.82 nM, h5HT7 in CHO cells; read-out: 5-HT7 IC50

In order of falling IC50:
1. Cc1noc(C)c1-c1cccc(CCN(C)C)c1 [Example 25, {2-[3-(3,5-Dimethyl-isoxazol-4-yl)-phenyl]-ethyl}-dimethyl-amine]  802 ± 159 nM
2. CCN(CC)CCc1cccc(-c2cnn(C)c2)c1 [Example 19, Diethyl-{2-[3-(1-methyl-1H-pyrazol-4-yl)-phenyl]-ethyl}-amine]  753 nM
3. CCCN(CCC)CCc1cccc(-c2c(C)noc2C)c1 [Example 28, {2-[3-(3,5-Dimethyl-isoxazol-4-yl)-phenyl]-ethyl}-dipropyl-amine]  602 nM
4. CCN(CC)CCc1cccc(-c2c(OC)cccc2OC)c1 [Example 15, [2-(2′,6′-Dimethoxy-biphenyl-3-yl)-ethyl]-diethyl-amine]  302 nM
5. CCN(CC)CCc1cccc(-c2ccccc2OC)c1 [Example 23, Diethyl-[2-(2′-methoxy-biphenyl-3-yl)-ethyl]-amine]  155 nM
6. Cc1nn(C)c(C)c1-c1cccc(CCN2CCCC2)c1 [Example 42, 1,3,5-Trimethyl-4-[3-(2-pyrrolidin-1-yl-ethyl)-phenyl]-1H-pyrazole]  139 ± 0.7 nM
7. Cc1n[nH]c(C)c1-c1cccc(CCN(C)C)c1 [Example 5, {2-[3-(3,5-Dimethyl-1H-pyrazol-4-yl)-phenyl]-ethyl}-dimethyl-amine]  129 ± 16.8 nM
8. CCCN(CCC)CCc1cccc(-c2c(OC)cccc2OC)c1 [Example 16, [2-(2′,6′-Dimethoxy-biphenyl-3-yl)-ethyl]-dipropyl-amine]  118 ± 45.9 nM

Biological target: 5HT7 receptor (Homo sapiens, UniProt P34969)
Sequence (P34969 whole entry): as above
Experiment: Functionality assay on the 5HT7 receptor
Type: biochemical
Settings: not given
From the text: Functionality assay on the 5HT7 receptor were done according to those known in the state of the art.

`Cc1nn(C)c(C)c1-c1cccc(CCN(C)C)c1` [Example 1, Dimethyl-{2-[3-(1,3,5-trimethyl-1H-pyrazol-4-yl)-phenyl]-ethyl}-amine] showed an EC50 of 25.5 ± 2 nM.

`Cc1nn(C)c(C)c1-c1cccc(CCN(C)C)c1` [Example 1, Dimethyl-{2-[3-(1,3,5-trimethyl-1H-pyrazol-4-yl)-phenyl]-ethyl}-amine] showed an Emax of 94%.

— patent US20100152252A1, “Heterocyclyl-substituted-ethylamino-phenyl derivatives, their preparation and use as medicaments” (LABORATORIOS DEL DR. ESTEVE,S.A., priority 2006, published 2010)
